Reference: patent publication US10563263B2, “Genetic polymorphisms associated with statin response and cardiovascular diseases, methods of detection and uses thereof” (CELERA CORPORATION, priority 2010, dated 2020)

Test system: CHD (fatal CHD, definite non-fatal MI, or revascularization)
Experiment: CARE: SNP by pravastatin treatment interaction, logistic regression (synergy index), CHD endpoint
Assay type: in vivo, human
Description: CARE was a secondary prevention trial and WOSCOPS was a primary prevention trial.
The CHD endpoint was defined in the analyses herein of CARE as a composite endpoint of fatal CHD, definite non-fatal MI, or revascularization, and was defined in the analyses herein of WOSCOPS as a composite endpoint of death from CHD, nonfatal MI, or revascularization. In both the CARE and WOSCOPS analyses herein, the CVD endpoint was defined as a composite endpoint of CHD or stroke. […] Revascularization, which can include percutaneous transluminal coronary angioplasty (PTCA), stent placement, and coronary artery bypass graft (CABG), are medical interventions that indicate the presence of CHD.
Cohort and case-only study designs were used to identify SNPs associated with response to statin treatment.
For each SNP, a logistic regression model having treatment status as the dependent variable and SNP as the independent predictor variable was performed, with terms for age, sex and race included in the model as covariates. The anti-log of the regression coefficient corresponding to the SNP is an estimate of the synergy index (SI) (Davis et al., “Imputing gene-treatment interactions when the genotype distribution is unknown using case-only and putative placebo analyses-a new method for the Genetics of Hypertension Associated Treatment (GenHAT) study”, Statistics in Medicine 23: (2004), pages 2413-2427). The SI is a ratio of odds ratios: for example in the CARE and WOSCOPS studies, the SI represents the factor by which the odds-ratio of statin treatment, compared with placebo, among major homozygous individuals is multiplied by in order to obtain the odds-ratio of treatment vs. placebo among heterozygous individuals; and multiplied by a second time to obtain the odds-ratio of treatment vs. placebo in minor homozygous individuals. The case-only study design results in a valid estimate of the SI under the assumption that genotype and treatment are independent in the population. In a randomized clinical trial, genotype and treatment are independent by design. The p-value for the regression coefficient corresponding to the SNP results from a test of the null hypothesis that the regression coefficient is equal to zero (SI is equal to one) and thus small p-values indicate the SI is unlikely equal to one and that the effect of treatment likely differs by genotype.
A case-only study design was used to test whether the reduction of CHD events by statin therapy (for CARE and WOSCOPS studies) differed according to genotype (a treatment by SNP interaction) for each SNP evaluated in the study.

## CC[C@H](C)C(=O)O[C@H]1C[C@H](O)C=C2C=C[C@H](C)[C@H](CC[C@@H](O)C[C@@H](O)CC(=O)O)[C@H]21 [Pravastatin, pravastatin]
rs3732788 allele G vs A (ref), Source cohort
  CARE OR: 0.56
rs3798544 allele A vs G (ref), Source cohort
  CARE OR: 1.47
rs3998860 allele A vs G (ref), Source cohort
  CARE OR: 0.58
rs4289236 allele A vs G (ref), Source cohort
  CARE OR: 1.37
rs4611134 allele A vs G (ref), Source cohort
  CARE OR: 1.54
rs4643388 allele G vs A (ref), Source cohort
  CARE OR: 1.32
rs4682522 allele C vs A (ref), Source cohort
  CARE OR: 0.59
rs4830819 allele G vs A (ref), Source cohort
  CARE OR: 0.57
rs4869033 allele G vs A (ref), Source cohort
  CARE OR: 0.31
rs4924215 allele A vs G (ref), Source cohort
  CARE OR: 1.77
rs4986146 allele A vs G (ref), Source cohort
  CARE OR: 0.62
rs4993917 allele A vs C (ref), Source cohort
  CARE OR: 0.57
rs5017584 allele A vs G (ref), Source cohort
  CARE OR: 1.61
rs6075209 allele A vs G (ref), Source cohort
  CARE OR: 0.63
rs6080603 allele A vs C (ref), Source cohort
  CARE OR: 0.59
rs6491586 allele G vs A (ref), Source cohort
  CARE OR: 1.59
rs6505669 allele G vs A (ref), Source cohort
  CARE OR: 1.70
rs6911817, allele A1 A (non-ref), A2 G (ref), source cohort, endpoint/model not given
  CARE OR: 2.15
rs7094941, allele A1 G (non-ref), A2 A (ref), source cohort, endpoint/model not given
  CARE OR: 0.78
rs7179134 allele A vs G (ref), Source cohort
  CARE OR: 3.54
rs7193741 allele A vs C (ref), Source cohort
  CARE OR: 2.16
rs7327364 allele A vs G (ref), Source cohort
  CARE OR: 0.69
rs7497613, allele A1 A (non-ref), A2 G (ref), source cohort, endpoint/model not given
  CARE OR: 0.65
rs7616936, allele A1 C (non-ref), A2 A (ref), source cohort, endpoint/model not given
  CARE OR: 1.47
rs7705993 allele G vs A (ref), Source cohort
  CARE OR: 1.50
rs7767024, allele A1 A (non-ref), A2 G (ref), source cohort, endpoint/model not given
  CARE OR: 1.32
rs7910196, allele A1 G (non-ref), A2 A (ref), source cohort, endpoint/model not given
  CARE OR: 1.36
rs8051893 allele A vs G (ref), Source cohort
  CARE OR: 0.69
rs8109631 allele A vs G (ref), Source cohort
  CARE OR: 1.53
rs9375683 allele G vs A (ref), Source cohort
  CARE OR: 1.63
rs9436636 allele A vs G (ref), Source cohort
  CARE OR: 1.34
rs9446187 allele A vs G (ref), Source cohort
  CARE OR: 1.92
rs9658127, allele A1 A (non-ref), A2 G (ref), source cohort, endpoint/model not given
  CARE OR: 2.03
rs10088505 allele A vs G (ref), Source Caseonly
  CARE OR: 1.52
rs10088524, allele A1 G (non-ref), A2 A (ref), source cohort, endpoint/model not given
  CARE OR: 1.46
rs10103297, allele A1 A (non-ref), A2 G (ref), source cohort, endpoint/model not given
  CARE OR: 1.84
rs10120126 allele G vs A (ref), Source CaseOnly
  CARE OR: 0.53
rs10189905 allele C vs A (ref), Source cohort
  CARE OR: 0.50
rs10500736 allele G vs A (ref), Source cohort
  CARE OR: 0.61
rs10517923 allele A vs G (ref), Source cohort
  CARE OR: 1.62
rs10814422 allele G vs A (ref), Source cohort
  CARE OR: 0.64
rs10849442 allele A vs G (ref), Source Caseonly
  CARE OR: 0.56
rs10875941, allele A1 G (non-ref), A2 A (ref), source cohort, endpoint/model not given
  CARE OR: 0.73
rs10973013 allele A vs G (ref), Source cohort
  CARE OR: 0.59
rs11076320 allele C vs A (ref), Source cohort
  CARE OR: 0.64
rs11082492 allele A vs C (ref), Source cohort
  CARE OR: 1.46
rs11925875 allele A vs G (ref), Source cohort
  CARE OR: 0.72
rs12556591 allele G vs A (ref), Source cohort
  CARE OR: 0.57
rs12657484, allele A1 G (non-ref), A2 A (ref), source cohort, endpoint/model not given
  CARE OR: 1.36
rs13279522 allele G vs A (ref), Source cohort
  CARE OR: 0.62
rs13314266 allele G vs A (ref), Source cohort
  CARE OR: 0.60
rs13318232 allele G vs A (ref), Source cohort
  CARE OR: 0.60
rs16861467, allele A1 G (non-ref), A2 A (ref), source cohort, endpoint/model not given
  CARE OR: 0.60
rs17076974 allele A vs G (ref), Source cohort
  CARE OR: 1.46
rs17546598 allele A vs G (ref), Source cohort
  CARE OR: 1.57
rs17706237 allele G vs A (ref), Source CaseOnly
  CARE OR: 1.80
rs17716275, allele A1 A (non-ref), A2 G (ref), source cohort, endpoint/model not given
  CARE OR: 1.91
rs72746987 allele A vs G (ref), Source cohort
  CARE OR: 0.43
